Test results published in PubChem BioAssay AID2060898 (Molecular Pharmacology Branch, DTP, NCI, 2025).
pIC50: −log10 of the molar value.

Tested on: 616215-338-R-J1-PDC complex spheroid viability
Test: Anticancer human tumor 616215-338-R-J1-PDC patient-derived colon adenocarcinoma cell line growth inhibition [RAS]
Conditions: for pIC50: curve of first compound; for viability, T/C: stronger effect = lower value
In short: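 Tumour cells grown as complex spheroids with HUVEC endothelial cells and mesenchymal stem cells, treated with RAS pathway inhibitor combinations. Each agent spans half-log steps from near clinical Cmax, or 10 microM where Cmax is unknown.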

[1] = second compound 0.000949 µM, first compound 0.0316 µM
[2] = second compound 0.000949 µM, first compound 0.1 µM
[3] = second compound 0.000949 µM, first compound 0.316 µM
[4] = second compound 0.000949 µM, first compound 1 µM
[5] = second compound 0.003 µM, first compound 0.0316 µM
[6] = second compound 0.003 µM, first compound 0.1 µM
[7] = second compound 0.003 µM, first compound 0.316 µM
[8] = second compound 0.003 µM, first compound 1 µM
[9] = second compound 0.00949 µM, first compound 0.0316 µM
[10] = second compound 0.00949 µM, first compound 0.1 µM
[11] = second compound 0.00949 µM, first compound 0.316 µM
[12] = second compound 0.00949 µM, first compound 1 µM
[13] = second compound 0.03 µM, first compound 0.0316 µM
[14] = second compound 0.03 µM, first compound 0.1 µM
[15] = second compound 0.03 µM, first compound 0.316 µM
[16] = second compound 0.03 µM, first compound 1 µM
[17] = second compound 0.0949 µM, first compound 0.0316 µM
[18] = second compound 0.0949 µM, first compound 0.1 µM
[19] = second compound 0.0949 µM, first compound 0.316 µM
[20] = second compound 0.0949 µM, first compound 1 µM
[21] = second compound 0.3 µM, first compound 0.0316 µM
[22] = second compound 0.3 µM, first compound 0.1 µM
[23] = second compound 0.3 µM, first compound 0.316 µM
[24] = second compound 0.3 µM, first compound 1 µM
[25] = second compound 0.000949 µM, first compound 3.16 µM
[26] = second compound 0.000949 µM, first compound 10 µM
[27] = second compound 0.003 µM, first compound 3.16 µM
[28] = second compound 0.003 µM, first compound 10 µM
[29] = second compound 0.00949 µM, first compound 3.16 µM
[30] = second compound 0.00949 µM, first compound 10 µM
[31] = second compound 0.03 µM, first compound 3.16 µM
[32] = second compound 0.03 µM, first compound 10 µM
[33] = second compound 0.0949 µM, first compound 3.16 µM
[34] = second compound 0.0949 µM, first compound 10 µM
[35] = second compound 0.3 µM, first compound 3.16 µM
[36] = second compound 0.3 µM, first compound 10 µM
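Note: spheroids exposed to agents for seven days before viability readout.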
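Throughout, for viability, T/C: 100% = DMSO vehicle control viability.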

## CCN1CCN(Cc2ccc(Nc3ncc(F)c(-c4cc(F)c5nc(C)n(C(C)C)c5c4)n3)nc2)CC1 + CCn1c(-c2cccnc2C(C)OC)c2c3cc(ccc31)N1CCOC(CC(NC(=O)C(C(C)C)N(C)C(=O)C3(F)CCN(C(=O)C#CC(C)(C)N(C)C)CC3)C(=O)N3CCCC(N3)C(=O)OCC(C)(C)C2)C1
Second compound 0.000949 µM
  pIC50: < 6.00
Second compound 0.003 µM
  pIC50: < 6.00
Second compound 0.00949 µM
  pIC50: < 6.00
Second compound 0.03 µM
  pIC50: < 6.00
Second compound 0.0949 µM
  pIC50: < 6.00
Second compound 0.3 µM
  pIC50: 6.03
Second compound 0.000949 µM, first compound 0.00316 µM
  viability, T/C: 104%
Second compound 0.000949 µM, first compound 0.01 µM
  viability, T/C: 103%
[1]
  viability, T/C: 104%
[2]
  viability, T/C: 122%
[3]
  viability, T/C: 144%
[4]
  viability, T/C: 66.5%
Second compound 0.003 µM, first compound 0.00316 µM
  viability, T/C: 102%
Second compound 0.003 µM, first compound 0.01 µM
  viability, T/C: 103%
[5]
  viability, T/C: 105%
[6]
  viability, T/C: 121%
[7]
  viability, T/C: 141%
[8]
  viability, T/C: 59.2%
Second compound 0.00949 µM, first compound 0.00316 µM
  viability, T/C: 102%
Second compound 0.00949 µM, first compound 0.01 µM
  viability, T/C: 104%
[9]
  viability, T/C: 108%
[10]
  viability, T/C: 128%
[11]
  viability, T/C: 134%
[12]
  viability, T/C: 56.8%
Second compound 0.03 µM, first compound 0.00316 µM
  viability, T/C: 110%
Second compound 0.03 µM, first compound 0.01 µM
  viability, T/C: 105%
[13]
  viability, T/C: 118%
[14]
  viability, T/C: 122%
[15]
  viability, T/C: 143%
[16]
  viability, T/C: 67.1%
Second compound 0.0949 µM, first compound 0.00316 µM
  viability, T/C: 109%
Second compound 0.0949 µM, first compound 0.01 µM
  viability, T/C: 113%
[17]
  viability, T/C: 116%
[18]
  viability, T/C: 121%
[19]
  viability, T/C: 129%
[20]
  viability, T/C: 50%
Second compound 0.3 µM, first compound 0.00316 µM
  viability, T/C: 117%
Second compound 0.3 µM, first compound 0.01 µM
  viability, T/C: 104%
[21]
  viability, T/C: 113%
[22]
  viability, T/C: 116%
[23]
  viability, T/C: 108%
[24]
  viability, T/C: 46%

## C[C@@H](NC(=O)c1ncnc(N)c1Cl)c1ncc(C(=O)Nc2cc(C(F)(F)F)c(Cl)cn2)s1 + CCn1c(-c2cccnc2C(C)OC)c2c3cc(ccc31)N1CCOC(CC(NC(=O)C(C(C)C)N(C)C(=O)C3(F)CCN(C(=O)C#CC(C)(C)N(C)C)CC3)C(=O)N3CCCC(N3)C(=O)OCC(C)(C)C2)C1
Second compound 0.000949 µM
  pIC50: < 5.00
Second compound 0.003 µM
  pIC50: < 5.00
Second compound 0.00949 µM
  pIC50: < 5.00
Second compound 0.03 µM
  pIC50: < 5.00
Second compound 0.0949 µM
  pIC50: < 5.00
Second compound 0.3 µM
  pIC50: 5.21
[1]
  viability, T/C: 108%
[2]
  viability, T/C: 103%
[3]
  viability, T/C: 100%
[4]
  viability, T/C: 117%
[25]
  viability, T/C: 113%
[26]
  viability, T/C: 61.5%
[5]
  viability, T/C: 94.2%
[6]
  viability, T/C: 105%
[7]
  viability, T/C: 104%
[8]
  viability, T/C: 120%
[27]
  viability, T/C: 107%
[28]
  viability, T/C: 68%
[9]
  viability, T/C: 103%
[10]
  viability, T/C: 100%
[11]
  viability, T/C: 101%
[12]
  viability, T/C: 112%
[29]
  viability, T/C: 121%
[30]
  viability, T/C: 72.7%
[13]
  viability, T/C: 101%
[14]
  viability, T/C: 98.6%
[15]
  viability, T/C: 116%
[16]
  viability, T/C: 111%
[31]
  viability, T/C: 112%
[32]
  viability, T/C: 68.6%
[17]
  viability, T/C: 109%
[18]
  viability, T/C: 115%
[19]
  viability, T/C: 116%
[20]
  viability, T/C: 86.1%
[33]
  viability, T/C: 90%
[34]
  viability, T/C: 54.6%
[21]
  viability, T/C: 113%
[22]
  viability, T/C: 111%
[23]
  viability, T/C: 100%
[24]
  viability, T/C: 79.8%
[35]
  viability, T/C: 66.5%
[36]
  viability, T/C: 39.7%

## Cc1nc(N2CCC3(CC2)COC(C)C3N)c(CO)nc1Sc1ccnc(N)c1Cl (stereo unspecified) + CCn1c(-c2cccnc2C(C)OC)c2c3cc(ccc31)N1CCOC(CC(NC(=O)C(C(C)C)N(C)C(=O)C3(F)CCN(C(=O)C#CC(C)(C)N(C)C)CC3)C(=O)N3CCCC(N3)C(=O)OCC(C)(C)C2)C1
Second compound 0.000949 µM
  pIC50: < 5.00
Second compound 0.003 µM
  pIC50: < 5.00
Second compound 0.00949 µM
  pIC50: < 5.00
Second compound 0.03 µM
  pIC50: < 5.00
Second compound 0.0949 µM
  pIC50: < 5.00
Second compound 0.3 µM
  pIC50: 5.12
[1]
  viability, T/C: 112%
[2]
  viability, T/C: 106%
[3]
  viability, T/C: 117%
[4]
  viability, T/C: 96.8%
[25]
  viability, T/C: 80.1%
[26]
  viability, T/C: 72.3%
[5]
  viability, T/C: 110%
[6]
  viability, T/C: 112%
[7]
  viability, T/C: 103%
[8]
  viability, T/C: 92.6%
[27]
  viability, T/C: 79.6%
[28]
  viability, T/C: 69.6%
[9]
  viability, T/C: 113%
[10]
  viability, T/C: 108%
[11]
  viability, T/C: 111%
[12]
  viability, T/C: 93.3%
[29]
  viability, T/C: 92.6%
[30]
  viability, T/C: 62.8%
[13]
  viability, T/C: 116%
[14]
  viability, T/C: 114%
[15]
  viability, T/C: 101%
[16]
  viability, T/C: 97.8%
[31]
  viability, T/C: 86.1%
[32]
  viability, T/C: 59.1%
[17]
  viability, T/C: 117%
[18]
  viability, T/C: 120%
[19]
  viability, T/C: 96.8%
[20]
  viability, T/C: 74.2%
[33]
  viability, T/C: 62.5%
[34]
  viability, T/C: 53.8%
[21]
  viability, T/C: 102%
[22]
  viability, T/C: 84%
[23]
  viability, T/C: 77%
[24]
  viability, T/C: 68.3%
[35]
  viability, T/C: 52.6%
[36]
  viability, T/C: 49.2%
